Earlier results in patent US6638431B2, “Formulation and method for treating wetted surface elements in climate control systems” (Mainstream Engineering Corporation, priority 2001, dated 2003).

Test system: Legionella pneumophilia

[Ag] [Ag, silver]
concentration in water effective against Legionella pneumophilia: about 0.02 ppm
